From patent US11285208B2, “Therapeutic agents for pancreatic cancer” (NATIONAL CANCER CENTER, priority 2010, dated 2022)
Counter-ions that a name gives are not always drawn.

Experiments:
[1] = test system: progressive/metastatic pancreatic cancer; assay: Clinical performance of gemcitabine hydrochloride monotherapy in progressive/metastatic pancreatic cancer patients; assay type: in vivo, human
Text: Thus, the tumor reducing effect and ascites eliminating effect observed in one case of combination therapy were not observed with monotherapy.

pancreatic cancer = conditions: first-line therapy, foreign phase III clinical trials; cited from earlier work

Structure (SMILES): Nc1ccn([C@@H]2O[C@H](CO)[C@@H](O)C2(F)F)c(=O)n1 [gemcitabine hydrochloride]
- Average change in tumor size (increase) ([1]; 3 months after the start of monotherapy, 25 analyzable cases, 95% confidence interval 4.6-67.4%): 36.0%
- Ascites elimination ([1]; during the monotherapy of 3 months, 29 analyzable cases): ascites was not eliminated
- Efficacy in symptom palliation (pancreatic cancer): 23.8%
- Median survival time (pancreatic cancer): 5.7 months
- One-year survival rate (pancreatic cancer): 18%
